Data on 32 compounds can be found in ChEMBL document CHEMBL1142965, “(Aryloxyacetylamino)benzoic acid analogues: A new class of hypoxia-inducible factor-1 inhibitors” (J Med Chem, 2007).

Experiment [1] has as its target Hypoxia inducible factors; HIF-1-alpha, HIF-2-alpha (Homo sapiens, UniProt Q16665+Q99814). The experiment can be described thus: Inhibition of hypoxia induced HIF1 transcriptional activity in human Hep3B cells by cell-based HRE reporter assay. The experiment is classed as functional. Particulars: hep 3b2. (In a reporter assay the amount or activity of a reporter protein is the signal.)

For another experiment, the system named is AGS. The experiment can be described thus: cells. As to conditions: Homo sapiens.
Experiment [2] concerns the target Hypoxia-inducible factor 1-alpha (Homo sapiens) (UniProt Q16665). The experiment can be described thus: Inhibition of hypoxia-induced HIF1-alpha accumulation in human Hep3B cells. The class given is functional, cell-based. Particulars: Hep 3B2.
A short description of experiment [3]: Suppression of hypoxia-induced VEGF mRNA expression in human Hep3B cells at 10 uM. The class given is functional, cell-based. As to conditions: Hep 3B2.
The nature of experiment [4]: Suppression of hypoxia-induced EPO mRNA expression in human Hep3B cells. The class given is functional, cell-based. Particulars: Hep 3B2.
The nature of experiment [5]: Suppression of hypoxia-induced VEGF mRNA expression in human Hep3B cells. The experiment is classed as functional, cell-based. As to conditions: Hep 3B2.
A short description of experiment [6]: Suppression of hypoxia-induced HIF1-alpha mRNA expression in human Hep3B cells. The class given is functional, cell-based. Particulars: Hep 3B2.
Experiment [7] can be described thus: Suppression of hypoxia-induced EPO mRNA expression in human Hep3B cells at 10 uM. The class given is functional, cell-based. As to conditions: Hep 3B2.

Structures are written as SMILES. Activity calls are given as the source filed them. No cut-off for these calls is given here.

In general, IC50 refers to the concentration that inhibits the measured activity by half.

Hypoxia-inducible factor 1-alpha (Homo sapiens), sequence (Q16665 whole entry, looked up): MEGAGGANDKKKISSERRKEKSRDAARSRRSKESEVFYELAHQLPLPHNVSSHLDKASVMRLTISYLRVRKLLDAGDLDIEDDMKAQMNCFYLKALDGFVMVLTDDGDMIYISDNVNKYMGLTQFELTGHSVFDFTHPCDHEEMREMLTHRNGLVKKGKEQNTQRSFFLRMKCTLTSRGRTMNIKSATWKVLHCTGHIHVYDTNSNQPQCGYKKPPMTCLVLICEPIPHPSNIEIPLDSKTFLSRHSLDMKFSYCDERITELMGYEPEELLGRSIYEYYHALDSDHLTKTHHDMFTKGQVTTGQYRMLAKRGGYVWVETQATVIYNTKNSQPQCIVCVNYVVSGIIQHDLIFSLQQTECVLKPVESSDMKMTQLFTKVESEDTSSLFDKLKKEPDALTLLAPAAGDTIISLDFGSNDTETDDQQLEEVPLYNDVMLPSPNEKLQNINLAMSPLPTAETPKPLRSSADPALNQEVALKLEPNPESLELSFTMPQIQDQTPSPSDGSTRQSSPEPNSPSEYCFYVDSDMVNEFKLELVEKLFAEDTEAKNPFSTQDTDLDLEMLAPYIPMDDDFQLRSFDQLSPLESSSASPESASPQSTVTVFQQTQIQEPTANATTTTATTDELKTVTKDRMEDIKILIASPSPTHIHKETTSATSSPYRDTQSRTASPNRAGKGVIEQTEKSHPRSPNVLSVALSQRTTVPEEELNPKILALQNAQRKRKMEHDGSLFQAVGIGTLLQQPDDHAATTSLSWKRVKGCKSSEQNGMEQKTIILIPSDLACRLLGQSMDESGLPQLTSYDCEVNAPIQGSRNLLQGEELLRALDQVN
Description for AGS: Inhibition of hypoxia induced HIF1 transcriptional activity in human AGS cells by cell-based HRE reporter assay

As to `O=C(COc1ccc(Cl)cc1)Nc1cccc(C(=O)O)c1`, the IC50 was more than 30 µM in experiment [1] and 10 µM in the experiment with AGS.

As for `O=C(COc1ccc(Br)cc1)Nc1cccc(C(=O)O)c1`, the 50% inhibitory concentration (IC50) in experiment [1] was more than 30 µM; in the experiment on AGS it was 1.6 µM.

For `O=C(COc1ccc(C23CC4CC(CC(C4)C2)C3)cc1)Nc1cccc(C(=O)Nc2ccc3ccccc3c2)c1`, the concentration for half-maximal inhibition (IC50) (in experiment [1]; with AGS) was more than 30 µM throughout.

Consider `Cc1ccc(OCC(=O)Nc2cccc(C(=O)O)c2)cc1`, for which the IC50 (in experiment [1]; in the experiment on AGS) was more than 30 µM each time.

For `O=C(COc1ccc(F)cc1)Nc1cccc(C(=O)O)c1`, the IC50 (in experiment [1]; in the experiment on AGS) was more than 30 µM each time.

Consider `CC(=O)c1ccc(OCC(=O)Nc2cccc(C(=O)O)c2)cc1`, for which the IC50 (in experiment [1]; with AGS) was more than 30 µM each time.

In the case of `O=C(COc1ccc(C23CC4CC(CC(C4)C2)C3)cc1)Nc1cc(C(=O)O)ccc1O`, the Activity result in experiment [2] was “Dose-dependent effect”. Moreover, the IC50 stood at 0.4 µM in experiment [1] and 0.35 µM with AGS.

Regarding `O=C(COc1ccc(-c2cccc([N+](=O)[O-])c2)cc1)Nc1cccc(C(=O)O)c1`, the IC50 (in experiment [1]; in the experiment with AGS) was more than 30 µM throughout.

As for `O=C(COc1ccc(I)cc1)Nc1cccc(C(=O)O)c1`, the IC50 in experiment [1] turned out to be 7.2 µM; in the experiment on AGS, 3.5 µM.

For `O=C(COc1ccc(C23CC4CC(CC(C4)C2)C3)cc1)Nc1cccc(C(=O)NCCc2ccncc2)c1`, the figures for the IC50 (in experiment [1]; with AGS) were 8.2 µM and 3.1 µM, respectively.

In the case of `O=C(COc1ccccc1)Nc1cccc(C(=O)O)c1`, the half-maximal inhibitory concentration (IC50) (in experiment [1]; with AGS) was more than 30 µM each time.

`Cc1ccc(-c2ccc(OCC(=O)Nc3cccc(C(=O)O)c3)cc2)cc1`: the half-maximal inhibitory concentration (IC50) in experiment [1] is 23.2 µM; in the experiment with AGS, more than 30 µM.

`CN(C)C(=O)c1ccc(O)c(NC(=O)COc2ccc(C34CC5CC(CC(C5)C3)C4)cc2)c1`: the IC50 (in experiment [1]; in the experiment on AGS) was more than 30 µM each time.

Take `O=C(COc1ccc(C23CC4CC(CC(C4)C2)C3)cc1)Nc1cccc(C(=O)Nc2ccc(Cl)cc2)c1`: the 50% inhibitory concentration (IC50) in experiment [1] was more than 30 µM; in the experiment on AGS it was 9.5 µM.

On to `NC(=O)c1ccc(O)c(NC(=O)COc2ccc(C34CC5CC(CC(C5)C3)C4)cc2)c1`, for which the results for the IC50 (in experiment [1]; in the experiment with AGS) were more than 30 µM and 1.5 µM, respectively.

For the compound `NC(=O)c1cccc(NC(=O)COc2ccccc2)c1`, the half-inhibitory concentration (IC50) (in experiment [1]; with AGS) was more than 30 µM throughout.

In the case of `COC(=O)c1cccc(NC(=O)COc2ccc(C34CC5CC(CC(C5)C3)C4)cc2)c1`, the values for the 50% inhibitory concentration (IC50) (in experiment [1]; in the experiment with AGS) were 9.9 µM and 7.4 µM, respectively.

On to `CC(C)(C)c1ccc(OCC(=O)Nc2cccc(C(=O)O)c2)cc1`, for which the values for the IC50 (in experiment [1]; in the experiment on AGS) were 29 µM and 9.5 µM, respectively.

With `CC(C)(C)c1ccc(OCC(=O)Nc2cccc(C(N)=O)c2)cc1`, the IC50 (in experiment [1]; in the experiment with AGS) was more than 30 µM each time.

`O=C(COc1ccc(C23CC4CC(CC(C4)C2)C3)cc1)Nc1ccc(C(=O)O)cc1` gave an IC50 in experiment [1] of more than 30 µM.

As to `O=C(COc1ccc(-c2cccs2)cc1)Nc1cccc(C(=O)O)c1`, the concentration for half-maximal inhibition (IC50) (in experiment [1]; in the experiment on AGS) was more than 30 µM each time.

`CN(C)CCNC(=O)c1ccc(O)c(NC(=O)COc2ccc(C34CC5CC(CC(C5)C3)C4)cc2)c1`: the half-inhibitory concentration (IC50) in experiment [1] was more than 30 µM; in the experiment on AGS, 3 µM.

`O=C(COc1ccc(C23CC4CC(CC(C4)C2)C3)cc1)Nc1ccccc1C(=O)O` came in with an IC50 in experiment [1] of 10.5 µM. This counts as double-digit micromolar.

As to `O=C(COc1ccc(C23CC4CC(CC(C4)C2)C3)cc1)Nc1cccc(C(=O)NCc2ccco2)c1`, the IC50 is 14.08 µM in experiment [1] and 2.1 µM in the experiment on AGS.

With `COC(=O)c1ccc(O)c(NC(=O)COc2ccc(C34CC5CC(CC(C5)C3)C4)cc2)c1`, the result in experiment [3] and in experiment [7] was Active. Moreover, the Activity result in experiment [4], in experiment [2] and in experiment [5] was “Dose-dependent effect” in each case. The IC50 was found to be 2.6 µM in experiment [1] and 0.7 µM in the experiment on AGS. Further, the result in experiment [6] was inactive.

As for `O=C(COc1ccc(C23CC4CC(CC(C4)C2)C3)cc1)Nc1cc(C(=O)NCc2ccco2)ccc1O`, the IC50 worked out at 12.6 µM in experiment [1] and 5.9 µM in the experiment with AGS.

On to `O=C(COc1ccc(C23CC4CC(CC(C4)C2)C3)cc1)Nc1cccc(C(=O)O)c1`, for which the Activity entry in experiment [4], in experiment [2] and in experiment [5] was “Dose-dependent effect” throughout. Also, the IC50 stood at 5 µM in experiment [1] and 2.5 µM with AGS. In addition, in experiment [6], the outcome was inactive.

Take `COc1cccc(-c2ccc(OCC(=O)Nc3cccc(C(=O)O)c3)cc2)c1`: the IC50 was more than 30 µM in experiment [1] and 35 µM with AGS.

As to `NC(=O)c1cccc(NC(=O)COc2ccc([N+](=O)[O-])cc2)c1`, the half-maximal inhibitory concentration (IC50) (in experiment [1]; in the experiment on AGS) was more than 30 µM throughout.

As for `Cc1ccc(OCC(=O)Nc2cccc(C(N)=O)c2)cc1`, the IC50 (in experiment [1]; with AGS) was more than 30 µM in each case.

For the compound `NC(=O)c1cccc(NC(=O)COc2ccc(C34CC5CC(CC(C5)C3)C4)cc2)c1`, in experiment [2], the Activity entry was “Dose-dependent effect”. Further, the IC50 worked out at 4.3 µM in experiment [1] and 1 µM in the experiment with AGS.

In the case of `OCc1ccc(-c2nn(Cc3ccccc3)c3ccccc23)o1`, the IC50 with AGS was found to be 2 µM.
